Reference: paper PMC3610344, “Differential Cytotoxicity Responses by Dog and Rat Hepatocytes to Phospholipogenic Treatments” (Journal of Toxicology, 2013)
Read-outs that look alike come from different tables or passages of the source.

Assays:
dog hepatocytes [1] = assay: Cell survival of primary dog hepatocytes (Cellomics Arrayscan); type: cell-based; details: for IC50: 24 h treatment
Source text: (§1) Primary rat hepatocytes were freshly isolated from Han Wistar rats at AstraZeneca, using the collagenase perfusion method (Selgen, PO, 1976). Primary dog hepatocytes were isolated at AstraZeneca, or purchased from CellzDirect Corp. (Durham, NC), which also uses a collagenase perfusion method. Cells were centrifuged and resuspended in hepatocyte culture media, consisting of Williams E basal media (Sigma-Aldrich, Inc., St. Louis, MO) 5% Hyclone fetal bovine serum (ThermoFisher Scientific Inc., Rockford, IL), 15 mM HEPES (Mediatech Inc., Manassas, VA), 100 units/mL penicillin/streptomycin, 200 μM l-glutamine, 1X ITS (insulin, transferrin, selenium solution from Mediatech Inc.), and 30 nM dexamethasone (Sigma-Aldrich). Cells were suspended at 2.5 × 10^5 cell/mL and added to BD Biocoat collagen I coated microtiter plates at 100 μL/well, for a final count of 25,000 cells/well. Selection criterion for use of initial isolates was 85% minimal viability. Cells were incubated at 37°C in a CO2 incubator for 4 h to allow for cell attachment. Media was aspirated and replaced with hepatocyte culture media without fetal bovine serum and supplemented with 150 μg/mL Matrigel collagen matrix (BD Inc.). Cells were incubated in a CO2 incubator for 24 h, the media was replaced with hepatocyte culture media, and the cells were incubated for an additional 24 h. Compounds were solubilized in DMSO, water, or ethanol to 1000X stock and then diluted to 1X in media. All conditions contained equal concentrations of vehicle.
(§2) In a modification of the procedure described by Morelli et al., hepatocytes were treated with drugs diluted into culture media containing 12 μg/mL NBD-PE (N-(7-nitrobenz-2-oxa-1,3-diazol-4-yl)-1,2-dihexadecanoyl-sn-glycero-3-phosphoethanolamine, triethylammonium salt) for 24 hours. At the end of the treatment period, Sytox orange (100 nM Invitrogen Inc.) was added to cells for 20 minutes prior to fixation. This fluorescent dye stains only cells with compromised cell membranes thereby enabling their exclusion from NBD-PE cell quantitation by the Cellomics ArrayScan instrument. Media were aspirated, cells were washed with 1X PBS and fixed by the addition of 100 μL PBS containing 3.7% formaldehyde, and 1 μg/mL Hoechst dye. Fixation was allowed to proceed for 30 min at RT, and cells were washed three times with 1X PBS, and sealed for imaging. Labeled cells were analyzed using the Cellomics Arrayscan instrument (Cellomics Inc., Pittsburgh, PA) with version 3.5 equipment and software. The ArrayScan captures fluorescent images in the 3 channels relevant to this assay (Hoechst, TRITC for Sytox staining and FITC for NBD-PE staining) and performs automated image analysis to quantify cell nuclei, the number of dead cells, and NBD-PE dye fluorescent intensity. The analysis algorithms that enable cell versus well-based detection were purchased from Cellomics Inc. and are referred to as Cell Health Profiling (CHP) and Target Activation (TA) algorithms. […] NBD-PE peak signal was defined as the maximal response.

rat hepatocytes [2] = assay: cells; type: cell-based; details: for IC50: 24 h treatment, read-out: Survival IC50; for % survival: average ± std dev
rat hepatocytes [3] = assay: NBD-PE accumulation assay in rat hepatocytes; type: cell-based, Han Wistar rats; details: for NBD-PE accumulation, control activity: 300 μM, N = 1
Source text: as §1, §2

dog hepatocytes [4] = assay: NBD-PE accumulation assay in dog hepatocytes; type: cell-based; details: for NBD-PE accumulation, control activity: 300 μM, 24 h, N = 1
Source text: as §1, with “Cells were incubated in a CO2 incubator for 24 h, the media was replaced with hepatocyte culture media, and the cells were incubated for an additional 24 h. Compounds were solubilized in DMSO, water, or ethanol to 1000X stock and then diluted to 1X in media. All conditions contained equal concentrations of vehicle.” left out
In a modification of the procedure described by Morelli et al., hepatocytes were treated with drugs diluted into culture media containing 12 μg/mL NBD-PE (N-(7-nitrobenz-2-oxa-1,3-diazol-4-yl)-1,2-dihexadecanoyl-sn-glycero-3-phosphoethanolamine, triethylammonium salt) for 24 hours. […] This fluorescent dye stains only cells with compromised cell membranes thereby enabling their exclusion from NBD-PE cell quantitation by the Cellomics ArrayScan instrument. […] Labeled cells were analyzed using the Cellomics Arrayscan instrument (Cellomics Inc., Pittsburgh, PA) with version 3.5 equipment and software. The ArrayScan captures fluorescent images in the 3 channels relevant to this assay (Hoechst, TRITC for Sytox staining and FITC for NBD-PE staining) and performs automated image analysis to quantify cell nuclei, the number of dead cells, and NBD-PE dye fluorescent intensity. […]

splenocyte = tested on: splenocyte; design: method as in PMID 16463016; details: in vitro, tested independently; cited from earlier work
dog liver = assay: Preclinical in vivo toxicology studies in dog
rat liver = assay: Preclinical in vivo toxicology studies in rat
rat hepatocytes [5] = assay: Acridine orange lysosomal staining time course in rat hepatocytes; type: cell-based, Han Wistar rats
rat hepatocytes [6] = assay: Mitochondrial membrane potential (JC-1 fluorescence) in rat hepatocytes; type: cell-based, Han Wistar rats
Source text: as §1
JC-1 was added to cell cultures at a concentration of 5 μg/mL for 30 minutes to allow for cellular accumulation. Media were then aspirated and replaced with fresh media containing drugs of interest without JC-1. Fluorescence was detected using a spectrofluorometer. The ratio of red to green signals was calculated and converted to % control for graphing and analysis.

[7] = tested on: isolated rat mitochondria; design: method as in PMID 17917797; details: cited from earlier work
[8] = Canis lupus familiaris, Hepatocyte, 24 h
[9] = Rattus norvegicus, Hepatocyte, 24 h
[10] = preclinical toxicology studies (1-month for compound A), unpublished observations / data not shown
[11] = 1-month toxicology study, comparable plasma exposures, unpublished observations

Nc1ccc(N2CCOCC2)cc1 [compound D]
IC50 (dog hepatocytes [1]; [8]): > 300 µM | IC50 (rat hepatocytes [2]; [9]): > 300 µM | NBD-PE accumulation, control activity (rat hepatocytes [3]; 24 h): 101% | NBD-PE accumulation, control activity (dog hepatocytes [4]): 140% | Phospholipogenic response in splenocyte model (splenocyte): negative

COc1cc2c(c(N3CCN(C)CC3)c1)O[C@@H](C(=O)Nc1ccc(N3CCOCC3)c(F)c1)CC2 [B]
IC50 (dog hepatocytes [1]; [8]): 153 ± 63 µM | IC50 (rat hepatocytes [2]; [9]): > 300 µM | Phospholipogenic response in splenocyte model (splenocyte): phospholipogenic

O=C(O)Cc1ccccc1Nc1c(Cl)cccc1Cl [Diclofenac, reference compound]
IC50 (dog hepatocytes [1]; [8]): 656 µM | IC50 (rat hepatocytes [2]; [9]): 832 µM | Phospholipogenic response in splenocyte model (splenocyte): negative

CCCc1cccc2c(N)c(C(=O)NCC3CC3)nnc12 [compound C]
IC50 (dog hepatocytes [1]; [8]): > 300 µM | IC50 (rat hepatocytes [2]; [9]): > 300 µM | NBD-PE accumulation, control activity (rat hepatocytes [3]; 24 h): 95% | NBD-PE accumulation, control activity (dog hepatocytes [4]): 121% | Phospholipogenic response in splenocyte model (splenocyte): negative

Cc1ccc(N2CCN(C)CC2)c2c1CC[C@@H](NC(=O)c1ccc(N3CCOCC3)cc1)C2 [NMTMB, N-[(2R)-5-methyl-8-(4-methylpiperazin-1-yl)tetralin-2-yl]-4-morpholino-benzamide]
Cells dead (dog hepatocytes [1]; 50 μM, 24 h): ~ 70% | Cell death (dog hepatocytes [1]; 100 μM, 24 hr): complete cell death | IC50 (dog hepatocytes [1]; [8]): 37 ± 13 µM | Phospholipidosis (PLD) in vivo (dog liver; [10]): confirmed multiorgan in vivo phospholipogenics | Drop in cell survival (rat hepatocytes [2]; 100 μM, 8 h treatment): 40% | Hepatocytes surviving (rat hepatocytes [2]; 100 μM, 24 hr): ~ 80% | % survival (rat hepatocytes [2]; 300 μM NMTMB alone): 9.3 ± 4% | % survival (rat hepatocytes [2]; 300 μM NMTMB cotreated with PADK): 51 ± 8.5% | Survival compared to control (rat hepatocytes [2]; 300 μM, 2 h): 20% | Cell death (rat hepatocytes [2]; 300 μM, 4 h): cell death was complete | IC50 (rat hepatocytes [2]): 148 ± 41 µM | IC50 (rat hepatocytes [2]; [9]): 159 µM | NBD-PE accumulation (rat hepatocytes [3]; 50 μM, 24 h): 4 fold vehicle control | EC50 (rat hepatocytes [3]; Hepatocyte, approximate, estimated from left-hand portion of bell-shaped curve): ~65 µM | Phospholipidosis (PLD) in vivo (rat liver; [10]): confirmed multiorgan in vivo phospholipogenics | AO spot count (rat hepatocytes [5]; 100 μM, up to 8 h): maintained or exceeded control levels | AO spot count (rat hepatocytes [5]; 300 μM, by 4 h): ~0% | Decline of AO spot count compared to control (rat hepatocytes [5]; 300 μM, within 30 minutes): ~50% | Time to maximum hyperpolarization (rat hepatocytes [6]; 100 μM): ≤ 2 h | Time to mitochondria hyperpolarization (rat hepatocytes [6]; 100 μM): ≤ 1 h | Mitochondrial polarization status (rat hepatocytes [6]; 300 μM): mitochondria depolarization was observed within the first hour | Mitochondrial polarization status with Baf cotreatment (rat hepatocytes [6]; 300 μM NMTMB plus 30 nM Baf, by 1 h): marked shift from mitochondrial depolarization to a hyperpolarized state

COc1cc2c(c(N3CCN(C)CC3)c1)O[C@@H](C(=O)Nc1ccc(N3CCOCC3)cc1)CC2 [compound A]
IC50 (dog hepatocytes [1]; Canis lupus familiaris, Hepatocyte): 298 ± 22 µM | Centrilobular necrosis of liver (dog liver; [11]): only dog had concomitant centrilobular necrosis | IC50 (rat hepatocytes [2]; Hepatocyte): > 450 µM | Centrilobular necrosis of liver (rat liver; [11]): only dog had concomitant centrilobular necrosis

CO/C1=C\C(C)=C\[C@@H](C)[C@@H](O)[C@@H](C)C/C(C)=C/C=C/[C@H](OC)[C@@H]([C@@H](C)[C@@H](O)[C@H](C)[C@@]2(O)C[C@@H](O)[C@H](C)[C@@H](C(C)C)O2)OC1=O [Baf, Bafilomycin A1, reference compound]
Minimal concentration affecting mitochondrial functions (potassium uptake, swelling, loss of membrane potential, uncoupling) [7]: 50 nM | Increase in control NBD-PE fluorescent staining (rat hepatocytes [3]; 100 nM Baf): 2 fold | Increase in control NBD-PE fluorescent staining (dog hepatocytes [4]; 100 nM Baf): 2 fold

CCN(CCO)CCCC(C)Nc1ccnc2cc(Cl)ccc12 (centres unmarked) [Hydroxychloroquine, reference compound]
IC50 (dog hepatocytes [1]): 159 µM | IC50 (dog hepatocytes [1]; [8]): 90 µM | IC50 (rat hepatocytes [2]): > 300 µM | IC50 (rat hepatocytes [2]; [9]): 220 µM | Change in survival (rat hepatocytes [2]; control condition without Baf, 24 h): 25–35%
